# Tests used:
# [1] = test system: glucose metabolic function of liver; assay: effect on glucose metabolism (blood sugar); type: in vivo, mouse; settings: for Blood Sugar: 250 mg/kg oral 6 h before glucose 4.0 g/kg
# Description: Methods: The test compounds dissolved in olive oil and administered orally at the dose of 250 mg/kg to the mice. After 6 hours, 4.0 g/kg of glucose was orally administered. The same amount of glucose was given to the control animals. 0.02 ml of blood was taken from caudal vein of the mice at 30, 60, 90 and 120 min. after glucose administration. Blood sugar was measured by the procedure of Somogyi-Nelson. Number of animals used was 5 to 6 mice for each treatment.
# [2] = test system: acute liver damage induced by bromobenzene; assay: protective effect on acute liver damage associated with centrilobular necrosis, bromobenzene model; type: in vivo, rat (SD)
# Description: Bromobenzene (hereinafter abbreviated as BB), Dimethylnitrosamine (hereinafter abbreviated as DMN) and chloroform (hereinafter abbreviated as CF) resemble carbon tetrachloride in inducing liver damage associated with centrilobular necrosis.
# Test compound or anethol trithion was orally administered to animal at the dose of 100 mg/kg. Twenty four hours after it (in the case of dimethylnitrosamine, exceptionally fifteen hours after it) the animals were sacrificed and blood samples were collected. Indices of hepatotoxicity adoptable in each chemical were measured, from which the efficacy of the compound was evaluated.
# BB male rat 0.75 oral p-GPT activity
# [3] = test system: chronic liver damage induced by thioacetamide; assay: therapeutic effect on chronic liver damage, thioacetamide model (BSP test); type: in vivo, rat (Sprague Dawley); settings: Group B, diet + 0.2% compound
# Description: In the tests of this Example, TAA was repeatedly administered to animals to prepare test animals suffering from somewhat chronic liver damages, and then the present compounds were administered thereto to know whether or not the compounds were effective against chronic hepatitis.
# The degree of the liver damage and the therapeutic effects of the compounds were evaluated according to BSP test. The BSP test is a method in which BSP (sulfobromophthalein sodium), a dye known to be quickly metabolized in and excreted from the liver, is intravenously injected into animals and, after a definite period of time, the blood is taken out to measure the amount of BSP remaining in the plasma. In case the animals are suffering from the liver damage, the dye will remain, according to the degree of the damage, at the stage where a major portion of BSP is metabolized and excreted in the case of normal animals.
# Five groups of rats (Sprague Dawley strain) were treated as follows:
# Group A: The rats were orally administered with 100 mg/kg of thioacetamide,at 3 days intervals for 36 days (12 times of the administration), then were submitted for 10 days to a normal diet.
# Group B: The rats were orally administered with 100 mg/kg of thioacetamide at 3 days intervals for 36 days (12 times of the administration), then were submitted for 10 days to the normal diet + 0.2% of compound 4.
# Group C: The rats were submitted to the normal diet as the control.
# Five rats were sacrificed from each group at appropriate intervals for BSP (sulfobromophthalein sodium) test, the results of which were shown as amounts (mg) of BSP remaining in ldl of plasma.
# [4] = bromobenzene 0.75 ml/kg oral, 100 mg/kg oral 6 h before, 24 h after
smiles,measurement,setting,value
"CC(C)OC(=O)C(C(=O)OC(C)C)=C1SC=CS1 [Compound 4, diisopropyl 1,3-dithiol-2-ylidene malonate]","Blood Sugar, percent of 0 min value",[1]; 0 min,100%
same,Blood Sugar,[1]; 0 min,123 ± 10.9 mg/dL
same,Blood Sugar,[1]; 30 min,282 ± 25.2 mg/dL
same,Blood Sugar,[1]; 60 min,236 ± 19.7 mg/dL
same,Blood Sugar,[1]; 90 min,159 ± 18.3 mg/dL
same,Blood Sugar,[1]; 120 min,138 ± 14.4 mg/dL
same,"Blood Sugar, percent of 0 min value",[1]; 30 min,229%
same,"Blood Sugar, percent of 0 min value",[1]; 60 min,192%
same,"Blood Sugar, percent of 0 min value",[1]; 90 min,129%
same,"Blood Sugar, percent of 0 min value",[1]; 120 min,112%
same,indices of hepatotoxicity,"[2]; BB, DMN and CF models together, Table 4",normalized the indices of hepatotoxicity
same,BSP,[2]; [4],10.6 ± 4.5 mg/dL
same,p-GPT,[2]; [4],23 ± 3.7 Karmen unit
same,BSP remaining in plasma,[3]; 2 days after compound administration,7.2 ± 2.5 mg/dL
same,BSP remaining in plasma,[3]; 5 days after compound administration,2.8 ± 0.7 mg/dL
same,BSP remaining in plasma,[3]; 10 days after compound administration,0.5 ± 0.1 mg/dL

# Source: US4118506A, “Pharmaceutical compositions containing 1,3-dithiol-2-ylidene malonate derivatives” (Nihon Nohyaku Co., Ltd., priority 1976, dated 1978)
